Measurements published in PubChem BioAssay (NCI).
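Grown in 96-well plates, cells were treated for 48 hours with each compound at five concentrations. Insufficient inhibition: endpoint recorded as highest concentration tested. The concentration for 50% growth inhibition is given as GI50. TGI is the concentration that stops growth completely.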

How the values were obtained:
Assay in all cases: NCI-60 cell line screen, 48 h
HOP-92 NSCLC = system: HOP-92 NSCLC
NCI-H226 lung = system: NCI-H226 lung
SK-MEL-5 melanoma = system: SK-MEL-5 melanoma
SR leukemia = system: SR leukemia
IGROV1 ovarian = system: IGROV1 ovarian
OVCAR-8 ovarian = system: OVCAR-8 ovarian
CCRF-CEM leukemia = system: CCRF-CEM leukemia
HS 578T breast = system: HS 578T breast
PC-3 prostate = system: PC-3 prostate
OVCAR-5 ovarian = system: OVCAR-5 ovarian
SK-OV-3 ovarian = system: SK-OV-3 ovarian
T-47D breast = system: T-47D breast
HCT-116 colon = system: HCT-116 colon
MDA-MB-435 = system: MDA-MB-435
NCI-H23 lung = system: NCI-H23 lung
HT29 colon = system: HT29 colon
SK-MEL-28 melanoma = system: SK-MEL-28 melanoma
SK-MEL-2 melanoma = system: SK-MEL-2 melanoma
NCI-H522 lung = system: NCI-H522 lung
RPMI-8226 leukemia = system: RPMI-8226 leukemia
UACC-62 melanoma = system: UACC-62 melanoma
ACHN renal = system: ACHN renal
SF-539 CNS = system: SF-539 CNS
786-0 renal = system: 786-0 renal
CAKI-1 renal = system: CAKI-1 renal
A549 NSCLC = system: A549 NSCLC
SNB-19 CNS = system: SNB-19 CNS
OVCAR-3 ovarian = system: OVCAR-3 ovarian
NCI-H460 lung = system: NCI-H460 lung
TK-10 renal = system: TK-10 renal
U251 CNS = system: U251 CNS
M14 melanoma = system: M14 melanoma
SN12C renal = system: SN12C renal
HCT-15 colon = system: HCT-15 colon
UACC-257 melanoma = system: UACC-257 melanoma
HL-60(TB) leukemia = system: HL-60(TB) leukemia
MCF7 breast = system: MCF7 breast
HCC-2998 colon = system: HCC-2998 colon
KM12 colon = system: KM12 colon
SW-620 colon = system: SW-620 colon
UO-31 renal = system: UO-31 renal
RXF 393 renal = system: RXF 393 renal
K-562 leukemia = system: K-562 leukemia
SF-268 CNS = system: SF-268 CNS
OVCAR-4 ovarian = system: OVCAR-4 ovarian
HOP-62 NSCLC = system: HOP-62 NSCLC
MALME-3M melanoma = system: MALME-3M melanoma
BT-549 breast = system: BT-549 breast
SNB-75 CNS = system: SNB-75 CNS
SF-295 CNS = system: SF-295 CNS
DU-145 prostate = system: DU-145 prostate
NCI/ADR-RES ovarian = system: NCI/ADR-RES ovarian
EKVX NSCLC = system: EKVX NSCLC
A498 renal = system: A498 renal
MDA-MB-231 breast = system: MDA-MB-231 breast
COLO 205 colon = system: COLO 205 colon
LOX IMVI melanoma = system: LOX IMVI melanoma
MOLT-4 leukemia = system: MOLT-4 leukemia
MDA-N = system: MDA-N

What does the source list for `c1ccc2c(-c3cnn4cc(-c5ccc(N6CCNCC6)cc5)cnc34)ccnc2c1`?
GI50 (HOP-92 NSCLC): 1.59 µM; TGI (HOP-92 NSCLC): 3.03 µM; GI50 (NCI-H226 lung): 1.65 µM; TGI (NCI-H226 lung): 3.59 µM; GI50 (SK-MEL-5 melanoma): 1.26 µM; TGI (SK-MEL-5 melanoma): 2.52 µM; GI50 (SR leukemia): 0.153 µM; TGI (SR leukemia): 0.562 µM; GI50 (IGROV1 ovarian): 0.801 µM; TGI (IGROV1 ovarian): 2.23 µM; GI50 (OVCAR-8 ovarian): 1.45 µM; TGI (OVCAR-8 ovarian): 3.05 µM; GI50 (CCRF-CEM leukemia): 0.196 µM; TGI (CCRF-CEM leukemia): 0.447 µM; GI50 (HS 578T breast): 1.25 µM; TGI (HS 578T breast): 2.93 µM; GI50 (PC-3 prostate): 0.316 µM; TGI (PC-3 prostate): 1.52 µM; GI50 (OVCAR-5 ovarian): 0.806 µM; TGI (OVCAR-5 ovarian): 2.24 µM; GI50 (SK-OV-3 ovarian): 1.38 µM; TGI (SK-OV-3 ovarian): 2.71 µM; GI50 (T-47D breast): 1.42 µM; TGI (T-47D breast): 3.2 µM; GI50 (HCT-116 colon): 0.313 µM; TGI (HCT-116 colon): 1.19 µM; GI50 (MDA-MB-435): 0.556 µM; TGI (MDA-MB-435): 1.91 µM; GI50 (NCI-H23 lung): 1.48 µM; TGI (NCI-H23 lung): 3.05 µM; GI50 (HT29 colon): 0.547 µM; TGI (HT29 colon): 1.91 µM; GI50 (SK-MEL-28 melanoma): 0.182 µM; TGI (SK-MEL-28 melanoma): 0.35 µM; GI50 (SK-MEL-2 melanoma): 1.57 µM; TGI (SK-MEL-2 melanoma): 2.98 µM; GI50 (NCI-H522 lung): 1.5 µM; TGI (NCI-H522 lung): 2.9 µM; GI50 (RPMI-8226 leukemia): 0.327 µM; TGI (RPMI-8226 leukemia): 0.931 µM; GI50 (UACC-62 melanoma): 1.41 µM; TGI (UACC-62 melanoma): 2.78 µM; GI50 (ACHN renal): 1.09 µM; TGI (ACHN renal): 2.29 µM; GI50 (SF-539 CNS): 1.31 µM; TGI (SF-539 CNS): 2.6 µM; GI50 (786-0 renal): 0.527 µM; TGI (786-0 renal): 1.03 µM; GI50 (CAKI-1 renal): 1.35 µM; TGI (CAKI-1 renal): 2.77 µM; GI50 (A549 NSCLC): 0.766 µM; TGI (A549 NSCLC): 1.99 µM; GI50 (SNB-19 CNS): 1.25 µM; TGI (SNB-19 CNS): 2.56 µM; GI50 (OVCAR-3 ovarian): 1.41 µM; TGI (OVCAR-3 ovarian): 2.72 µM; GI50 (NCI-H460 lung): 0.216 µM; TGI (NCI-H460 lung): 0.525 µM; GI50 (TK-10 renal): 1.76 µM; TGI (TK-10 renal): 3.2 µM; GI50 (U251 CNS): 0.278 µM; TGI (U251 CNS): 1.08 µM; GI50 (M14 melanoma): 0.297 µM; TGI (M14 melanoma): 0.962 µM; GI50 (SN12C renal): 1.22 µM; TGI (SN12C renal): 2.62 µM; GI50 (HCT-15 colon): 0.325 µM; TGI (HCT-15 colon): 1.45 µM; GI50 (UACC-257 melanoma): 1.75 µM; TGI (UACC-257 melanoma): 3.29 µM; GI50 (HL-60(TB) leukemia): 0.461 µM; TGI (HL-60(TB) leukemia): 0.969 µM; GI50 (MCF7 breast): 0.429 µM; TGI (MCF7 breast): 1.7 µM; GI50 (HCC-2998 colon): 1.36 µM; TGI (HCC-2998 colon): 2.74 µM; GI50 (KM12 colon): 1.15 µM; TGI (KM12 colon): 2.39 µM; GI50 (SW-620 colon): 0.335 µM; TGI (SW-620 colon): 1.37 µM; GI50 (UO-31 renal): 1.19 µM; TGI (UO-31 renal): 2.43 µM; GI50 (RXF 393 renal): 1.04 µM; TGI (RXF 393 renal): 2.45 µM; GI50 (K-562 leukemia): 0.226 µM; TGI (K-562 leukemia): 0.696 µM; GI50 (SF-268 CNS): 1.43 µM; TGI (SF-268 CNS): 2.8 µM; GI50 (OVCAR-4 ovarian): 1.5 µM; TGI (OVCAR-4 ovarian): 3.43 µM; GI50 (HOP-62 NSCLC): 0.634 µM; TGI (HOP-62 NSCLC): 1.24 µM; GI50 (MALME-3M melanoma): 1.34 µM; TGI (MALME-3M melanoma): 2.92 µM; GI50 (BT-549 breast): 1.6 µM; TGI (BT-549 breast): 3.13 µM; GI50 (SNB-75 CNS): 0.441 µM; TGI (SNB-75 CNS): 2.12 µM; GI50 (SF-295 CNS): 1.13 µM; TGI (SF-295 CNS): 2.48 µM; GI50 (DU-145 prostate): 0.739 µM; TGI (DU-145 prostate): 2.06 µM; GI50 (NCI/ADR-RES ovarian): 1.72 µM; TGI (NCI/ADR-RES ovarian): 3.42 µM; GI50 (EKVX NSCLC): 1.89 µM; TGI (EKVX NSCLC): 3.76 µM; GI50 (A498 renal): 1.43 µM; TGI (A498 renal): 2.87 µM; GI50 (MDA-MB-231 breast): 1.48 µM; TGI (MDA-MB-231 breast): 3.03 µM; GI50 (COLO 205 colon): 1.42 µM; TGI (COLO 205 colon): 2.81 µM; GI50 (LOX IMVI melanoma): 1.27 µM; TGI (LOX IMVI melanoma): 2.58 µM; GI50 (MOLT-4 leukemia): 0.885 µM; TGI (MOLT-4 leukemia): 2.34 µM

For `Cc1ccc(/C=C2\CCCCCC2=O)cc1`, which TGI (HOP-92 NSCLC) is on record?
Its TGI is over 100 µM.

And the TGI (NCI-H226 lung)?
Its TGI is over 100 µM.

And the TGI (SK-MEL-5 melanoma)?
The TGI was over 100 µM.

What about the TGI (SR leukemia) of the same compound?
The TGI was over 100 µM.

And the TGI (IGROV1 ovarian)?
Its TGI is over 100 µM.

What about the TGI (CCRF-CEM leukemia) of the same compound?
Its TGI is over 100 µM.

And the TGI (HS 578T breast)?
The TGI was over 100 µM.

What about the TGI (MDA-N) of the same compound?
Its TGI is over 100 µM.

What about the TGI (PC-3 prostate) of the same compound?
The TGI was over 100 µM.

And the TGI (OVCAR-5 ovarian)?
Its TGI is over 100 µM.

What about the TGI (SK-OV-3 ovarian) of the same compound?
Its TGI is over 100 µM.

And the TGI (T-47D breast)?
Its TGI is over 100 µM.

What about the TGI (HCT-116 colon) of the same compound?
Its TGI is over 100 µM.

And the TGI (MDA-MB-435)?
The TGI was over 100 µM.

And the TGI (NCI-H23 lung)?
The TGI was over 100 µM.

And the TGI (HT29 colon)?
The TGI was over 100 µM.

And the TGI (SK-MEL-28 melanoma)?
The TGI was over 100 µM.

And the TGI (SK-MEL-2 melanoma)?
Its TGI is over 100 µM.

What about the TGI (NCI-H522 lung) of the same compound?
The TGI was over 100 µM.

And the TGI (RPMI-8226 leukemia)?
Its TGI is over 100 µM.

And the TGI (UACC-62 melanoma)?
Its TGI is over 100 µM.

And the TGI (ACHN renal)?
The TGI was over 100 µM.

And the TGI (786-0 renal)?
Its TGI is over 100 µM.

What about the TGI (CAKI-1 renal) of the same compound?
The TGI was over 100 µM.

What about the TGI (A549 NSCLC) of the same compound?
The TGI was over 100 µM.

And the TGI (SNB-19 CNS)?
The TGI was over 100 µM.

And the TGI (OVCAR-3 ovarian)?
Its TGI is over 100 µM.

What about the TGI (NCI-H460 lung) of the same compound?
Its TGI is over 100 µM.

What about the TGI (TK-10 renal) of the same compound?
The TGI was over 100 µM.

What about the TGI (U251 CNS) of the same compound?
The TGI was over 100 µM.

What about the TGI (M14 melanoma) of the same compound?
The TGI was over 100 µM.

What about the TGI (SN12C renal) of the same compound?
The TGI was over 100 µM.

And the TGI (HCT-15 colon)?
The TGI was over 100 µM.

And the TGI (UACC-257 melanoma)?
The TGI was over 100 µM.

What about the TGI (HL-60(TB) leukemia) of the same compound?
The TGI was over 100 µM.

And the TGI (HCC-2998 colon)?
The TGI was over 100 µM.

And the TGI (KM12 colon)?
Its TGI is over 100 µM.

What about the TGI (SW-620 colon) of the same compound?
The TGI was over 100 µM.

What about the TGI (UO-31 renal) of the same compound?
Its TGI is over 100 µM.

And the TGI (K-562 leukemia)?
The TGI was over 100 µM.

What about the TGI (SF-268 CNS) of the same compound?
The TGI was over 100 µM.

What about the TGI (OVCAR-4 ovarian) of the same compound?
Its TGI is over 100 µM.

What about the TGI (HOP-62 NSCLC) of the same compound?
The TGI was over 100 µM.

And the TGI (MALME-3M melanoma)?
The TGI was over 100 µM.

What about the TGI (BT-549 breast) of the same compound?
Its TGI is over 100 µM.

What about the TGI (SNB-75 CNS) of the same compound?
Its TGI is over 100 µM.

What about the TGI (SF-295 CNS) of the same compound?
The TGI was over 100 µM.

What about the TGI (DU-145 prostate) of the same compound?
The TGI was over 100 µM.

And the TGI (EKVX NSCLC)?
Its TGI is over 100 µM.

And the TGI (A498 renal)?
Its TGI is over 100 µM.

And the TGI (MDA-MB-231 breast)?
Its TGI is over 100 µM.

And the TGI (COLO 205 colon)?
Its TGI is over 100 µM.

What about the TGI (LOX IMVI melanoma) of the same compound?
The TGI was over 100 µM.

What about the TGI (MOLT-4 leukemia) of the same compound?
The TGI was over 100 µM.
